The values that follow come from patent US9937121B2, “Hydrophilic external gel formulation capable of enhancing skin permeability of tacrolimus” (CHUNG-ANG UNIVERSITY INDUSTRY-ACADEMIC COOPERATION …, priority 2014, dated 2018).

Structures are written as SMILES.

For series [1] the following is noted: poorly soluble in water and highly permeable; cited from earlier work.
Series [2] in a line: Solubility of tacrolimus in Transcutol P. The class given is physicochemical. As to conditions: room temperature. From the text:
Since tacrolimus is lipid-soluble and a formulation for delivering a drug is in a hydrophilic gel form, a solubilizer that can dissolve tacrolimus and then disperse tacrolimus well was needed. Also, in order to enhance the skin permeability of tacrolimus, Transcutol P was selected as a substance which can act as an enhancer for skin permeability. […] Carbopol 934P used as a polymeric base absorbs and attracts water well, has an ability to form a film, and thus is widely used as a moisturizer. Carnosine, which is a biocomponent present in human muscle and brain tissue, is known as a substance having excellent antioxidant activity, and appropriately adjusts the pH of a formulation for external application when applied to skin.

Regarding `C=CC[C@@H]1/C=C(\C)C[C@H](C)C[C@H](OC)[C@H]2O[C@@](O)(C(=O)C(=O)N3CCCC[C@H]3C(=O)O[C@H](/C(C)=C/[C@@H]3CC[C@@H](O)[C@H](OC)C3)[C@H](C)[C@@H](O)CC1=O)[C@H](C)C[C@@H]2OC` [tacrolimus, Tacrolimus], the BCS class result in series [1] is “class II”. Moreover, the “solubility of tacrolimus in Transcutol P” value in series [2] is listed as 240 mg/g.
